Paper PMC6385358, “Discovery of ((1,2,4-oxadiazol-5-yl)pyrrolidin-3-yl)ureidyl derivatives as selective non-steroidal agonists of the G-protein coupled bile acid receptor-1” (Scientific Reports, 2019)

Tests used:
[1] = tested on: pro-glucagon mRNA in GLUTag cells; assay: RT-PCR of pro-glucagon mRNA expression in GLUTag cells; assay type: cell-based, mouse; details: 10 μM
Description: (§1) The activity of compounds 1–14 on GPBAR1 was evaluated in a luciferase reporter assay using HEK-293T cells transfected with GPBAR1. The efficacy of tested compounds (Table 1) was measured using taurolithocholic acid (TLCA) as GPBAR1 reference compound[10],[11]. Each compound was tested at the concentration of 10 μM and transactivation activity of TLCA on a cAMP responsive element (CRE) (i.e. TGR5/GPBAR1) was considered equal to 100%. […] Thus, 9 and 10 (Table 1) turned out to be the most promising derivatives considering their low EC50 values and high activity efficacy. To further characterize the pharmacological properties of these compounds, we expanded their in vitro profile to common off-targets for bile acid receptor ligands.
Figure 3 (A) Dose response curves of compounds 9 and 10 (concentrations ranging from 1 to 50 µM) in luciferase reporter assay. (B) Real-time PCR analysis of mRNA expression of Pro-glucagon in GLUTag cells treated with compounds 9 and 10 at 10 μM, and TLCA used as a positive control (10 μM). Values are normalized to GAPDH and are expressed relative to those of not treated cells (NT) which are arbitrarily settled to 1. The relative mRNA expression is expressed as 2^(−ΔΔCt). (C) Specificity of compounds 9 and 10 at 10 μM dose in luciferase reporter assays versus PPARα and PPARγ using Gemfibrozil (GEM, 10 μM) and Rosiglitazone (ROSI, 100 nM) as positive controls respectively. (D) Specificity of compounds 9 and 10 at 10 μM in luciferase reporter assays versus LXRα and LXRβ using GW3965 (GW, 10 μM) as positive control. (E) Specificity of compounds 9 and 10 at 10 μM in luciferase reporter assays versus FXR using CDCA (10 μM) as positive control; (F) Specificity of compounds 9 and 10 at 10 μM in luciferase reporter assays versus PXR using Rifaximin (Rifax, 10 μM) as positive control.
Evaluation of proglucagon mRNA expression was performed in RT-PCR on GLUTag cells (1 × 10^6 cells/well in a 6 well plate) as previously reported[34],[47]. The relative mRNA expression was calculated and expressed as 2^−(ΔΔCt). […]

[2] = biological target: T1, PXR (Homo sapiens, UniProt O75469); assay: Luciferase reporter specificity assay versus PXR on HepG2 cells; assay type: cell-based; details: 10 μM
T1 construct: host or cells: HepG2
T1 sequence (O75469 1-434): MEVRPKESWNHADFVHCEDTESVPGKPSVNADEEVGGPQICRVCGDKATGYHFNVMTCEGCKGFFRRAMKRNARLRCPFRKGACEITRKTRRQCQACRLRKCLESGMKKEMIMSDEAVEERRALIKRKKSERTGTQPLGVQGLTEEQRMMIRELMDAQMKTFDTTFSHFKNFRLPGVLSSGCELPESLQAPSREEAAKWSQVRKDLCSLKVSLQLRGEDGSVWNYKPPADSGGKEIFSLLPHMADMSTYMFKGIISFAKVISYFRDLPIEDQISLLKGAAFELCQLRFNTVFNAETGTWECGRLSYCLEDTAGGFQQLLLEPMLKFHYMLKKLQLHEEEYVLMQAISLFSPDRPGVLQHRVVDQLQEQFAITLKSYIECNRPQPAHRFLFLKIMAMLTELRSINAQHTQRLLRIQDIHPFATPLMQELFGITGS
Description: as §1
Figure 3 (A) Dose response curves of compounds 9 and 10 (concentrations ranging from 1 to 50 µM) in luciferase reporter assay. (B) Real-time PCR analysis of mRNA expression of Pro-glucagon in GLUTag cells treated with compounds 9 and 10 at 10 μM, and TLCA used as a positive control (10 μM). Values are normalized to GAPDH and are expressed relative to those of not treated cells (NT) which are arbitrarily settled to 1. The relative mRNA expression is expressed as 2^(−ΔΔCt). […]
The specificity of compounds 9 and 10 versus PPARα, PPARγ, LXRα, LXRβ, FXR and PXR was determined in luciferase reporter gene assays as previously reported[29],[31].

[3] = LogD measurement (octanol/PBS pH 7.4); assay type: physicochemical; details: octanol/PBS (1/1)
Description: (§2) Chromatography was performed using a HPLC–MS system Q-ToF Premiere instrument (Waters, Co.) equipped with an ESI source and Waters pump systems. The mixture was separated on a Luna 5 µm C8(2) 100 °A 150 × 2 mm from Phenomenex. The mobile phase consisted of 0.2% formic acid (FA) in water as solvent A and 0.2% FA in acetonitrile as solvent B at a flow rate of 200 μL/min. The gradient was as follows: 0–2 min (75% A and 25% B), 2–20 min (5% A and 95% B), 20–30 min (75% A and 25% B). The detection of analytes was achieved by ESI in the positive mode with the appropriate MRM transition or by UV system at 220 nm.
Ten μL of a 10 mM solution in DMSO of the compound was diluted in 490 μL of a 1/1 octanol/PBS mixture at pH 7.4. The mixture was gently shaken for 2 h at room temperature. Ten microliters of each phase was diluted in 490 μL of MeOH and analyzed by LC-MS/MS. Each compound was tested in triplicate. Log D was determined as the logarithm of the ratio of concentration of product in octanol and PBS, determined by mass signals.

[4] = Liver microsomal stability; assay type: in vitro ADME, mouse; details: liver microsomes; for CIint / half-life at 1 μM: 1 μM compound; for CIint: 0.3 mg protein/mL; for half-life at 1 μM: male, CD-1, mouse, pH 7.4, read-out: t½
Description: as §2
Male mouse (CD-1) liver microsomes (Sigma-Aldrich) were used. All incubations were performed in duplicate in a shaking water bath at 37 °C. The incubation mixtures contained 1 μM compound with 1% DMSO used as a vehicle, mouse liver microsomes (0.3 mg of microsomal protein per mL), 5 mM MgCl2, 1 mM NADP, 5 mM glucose 6-phosphate, 0.4 U·mL^-^1 glucose 6-phosphate dehydrogenase, and 50 mM potassium phosphate buffer (pH 7.4) in a final volume of 0.5 mL. Aliquots were removed at 0, 5, 10, 20, 30, and 40 min after microsome addition and the reaction was stopped by adding 200 μL of ice-cold acetonitrile. After 2 h, the samples were centrifuged for 10 min at 10000 rpm, and the supernatants were transferred in matrix tubes for LC-MS/MS analysis. Propranolol, known as a high hepatic clearance drug in rodents, was used as a quality-control compound for the microsomal incubations. The slope of the linear regression of the curve obtained reporting the natural logarithm of compound area versus incubation time (−k) was used in the conversion to in vitro t1/2 values by t1/2 = […]. In vitro intrinsic clearance (Clint expressed as μL/min/mg) was calculated according to the following formula: Clint = volume of reaction (μL)/t1/2 (min)/protein of liver microsomes (mg).

PXR transactivation [2]	logD at 2 h [3]	CIint [4]	Compound remaining 40 min after treatment [4]	half-life at 1 μM [4]	Compound	Induction of pro-glucagon mRNA expression [1]	Efficacy in inducing pro-glucagon mRNA expression compared with TLCA ([1]; TLCA 10 μM)
unable to induce	1.47	67 μL/min/mg protein	42%	35 min	O=C(Nc1ccc(Cl)cc1)N[C@@H]1CN[C@H](c2nc(-c3ccccc3)no2)C1 [Compound 9]	effective in inducing the expression of pro-glucagon mRNA	–
unable to induce	1.25	76 μL/min/mg protein	40%	30 min	O=C(NC1CCCCC1)N[C@@H]1CN[C@H](c2nc(-c3ccccc3)no2)C1 [Compound 10]	effective in inducing the expression of pro-glucagon mRNA	same efficacy of TLCA
